Results on two compounds are retold here after ChEMBL document CHEMBL4411284, “Discovery of novel quaternary ammonium compounds based on quinuclidine-3-ol as new potential antimicrobial candidates” (Eur J Med Chem, 2019).

The source made the active and inactive calls. No cut-off for these calls is given here.

Assay [1] relates to Staphylococcus aureus. The assay can be described thus: Bactericidal activity against Staphylococcus aureus ATCC 29213 preincubated for 24 to 48 hrs followed by replating on MHA plates and measured after 18 hrs by broth microdilution assay. It counts as functional. For orientation: Broth dilution looks for growth in wells or tubes with falling amounts of substance.
The subject of assay [2] is Staphylococcus aureus. The assay can be described thus: Antimicrobial activity against Staphylococcus aureus ATCC 29213 after 24 to 48 hrs by broth microdilution assay. It counts as functional.
The subject of assay [3] is Escherichia coli. The assay can be described thus: Antimicrobial activity against Escherichia coli ATCC 25922 after 24 to 48 hrs by broth microdilution assay. It counts as functional.
Assay [4] relates to Escherichia coli. The assay is described as follows: Bactericidal activity against Escherichia coli ATCC 25922 preincubated for 24 to 48 hrs followed by replating on MHA plates and measured after 18 hrs by broth microdilution assay. It is filed as functional.
Assay [5] has as its system HEK293. The assay is described as follows: Cytotoxicity against HEK293 cells assessed as reduction in cell viability after 48 hrs by MTS assay. It is filed as cell-based. The conditions noted are these: Homo sapiens, HEK293, 48 h.
Assay [6] has as its system HeLa. The assay can be described thus: Cytotoxicity against human HeLa cells assessed as reduction in cell viability after 48 hrs by MTS assay. It is filed as cell-based.
For assay [7], the system named is Staphylococcus aureus. The assay is described as follows: Induction of morphological changes in Staphylococcus aureus ATCC 29213 assessed as cell wall damage at MIC after 1 hr by atomic force microscopic analysis. It counts as functional, organism-based.
Assay [8] concerns Klebsiella pneumoniae. The assay can be described thus: Bactericidal activity against Klebsiella pneumoniae ATCC 13883 preincubated for 24 to 48 hrs followed by replating on MHA plates and measured after 18 hrs by broth microdilution assay. It counts as functional.
Assay [9] deals with Aspergillus niger. The assay is described as follows: Antifungal activity against Aspergillus niger after 24 to 48 hrs by broth microdilution assay. It is filed as functional.
In assay [10] the test system is Salmonella typhimurium. The assay is described as follows: Bactericidal activity against Salmonella typhimurium WDCM 00031 preincubated for 24 to 48 hrs followed by replating on MHA plates and measured after 18 hrs by broth microdilution assay. It counts as functional, Salmonella enterica subsp. enterica serovar Typhimurium. The conditions noted are these: Salmonella enterica.

Assay [11] deals with Enterococcus faecalis. The assay can be described thus: Bactericidal activity against Enterococcus faecalis ATCC 29212 preincubated for 24 to 48 hrs followed by replating on MHA plates and measured after 18 hrs by broth microdilution assay. It counts as functional.
Assay [12] deals with Acinetobacter baumannii. The assay is described as follows: Bactericidal activity against Acinetobacter baumannii ATCC 19606 preincubated for 24 to 48 hrs followed by replating on MHA plates and measured after 18 hrs by broth microdilution assay. It counts as functional. The conditions noted are these: ATCC 19606 = CIP 70.34 = JCM 6841.
Assay [13] deals with Staphylococcus aureus. The assay can be described thus: Bactericidal activity against methicillin-resistant Staphylococcus aureus clinical isolate preincubated for 24 to 48 hrs followed by replating on MHA plates and measured after 18 hrs by broth microdilution assay. It is filed as functional.
The subject of assay [14] is Penicillium citrinum. The assay is described as follows: Antifungal activity against Penicillium citrinum after 24 to 48 hrs by broth microdilution assay. It counts as functional.
The subject of assay [15] is Streptococcus pyogenes. The assay is described as follows: Bactericidal activity against Streptococcus pyogenes ATCC 19615 preincubated for 24 to 48 hrs followed by replating on MHA plates and measured after 18 hrs by broth microdilution assay. It counts as functional.
Assay [16] has as its system Listeria monocytogenes. The assay is described as follows: Bactericidal activity against Listeria monocytogenes ATCC 19111 (1/2a) preincubated for 24 to 48 hrs followed by replating on MHA plates and measured after 18 hrs by broth microdilution assay. It is filed as functional.
Assay [17] deals with Klebsiella pneumoniae. The assay is described as follows: Bactericidal activity against Klebsiella pneumoniae clinical isolate preincubated for 24 to 48 hrs followed by replating on MHA plates and measured after 18 hrs by broth microdilution assay. It counts as functional.
Assay [18] concerns Pseudomonas aeruginosa. The assay can be described thus: Bactericidal activity against Pseudomonas aeruginosa ATCC 27853 preincubated for 24 to 48 hrs followed by replating on MHA plates and measured after 18 hrs by broth microdilution assay. It counts as functional.
Assay [19] concerns Acinetobacter baumannii. The assay is described as follows: Antimicrobial activity against Acinetobacter baumannii ATCC 19606 after 24 to 48 hrs by broth microdilution assay. It counts as functional. The conditions noted are these: ATCC 19606 = CIP 70.34 = JCM 6841.
Assay [20] concerns Enterococcus faecalis. The assay can be described thus: Antimicrobial activity against Enterococcus faecalis ATCC 29212 after 24 to 48 hrs by broth microdilution assay. It is filed as functional.
For assay [21], the system named is Klebsiella pneumoniae. The assay can be described thus: Antimicrobial activity against Klebsiella pneumoniae clinical isolate after 24 to 48 hrs by broth microdilution assay. It counts as functional.
Assay [22] relates to Acinetobacter baumannii. The assay can be described thus: Antimicrobial activity against Acinetobacter baumannii clinical isolate after 24 to 48 hrs by broth microdilution assay. It is filed as functional.
Assay [23] relates to Escherichia coli. The assay can be described thus: Bactericidal activity against Escherichia coli clinical isolate preincubated for 24 to 48 hrs followed by replating on MHA plates and measured after 18 hrs by broth microdilution assay. It counts as functional.
Assay [24] relates to Escherichia coli. The assay is described as follows: Antimicrobial activity against Escherichia coli clinical isolate after 24 to 48 hrs by broth microdilution assay. It counts as functional.
Assay [25] deals with Streptococcus pyogenes. The assay can be described thus: Antimicrobial activity against Streptococcus pyogenes ATCC 19615 after 24 to 48 hrs by broth microdilution assay. It counts as functional.
In assay [26] the test system is Candida albicans. The assay can be described thus: Antifungal activity against Candida albicans ATCC 90029 after 24 to 48 hrs by broth microdilution assay. It is filed as functional.
Assay [27] has as its system Pseudomonas aeruginosa. The assay can be described thus: Antimicrobial activity against Pseudomonas aeruginosa ATCC 27853 after 24 to 48 hrs by broth microdilution assay. It counts as functional.
In assay [28] the test system is Listeria monocytogenes. The assay is described as follows: Antimicrobial activity against Listeria monocytogenes ATCC 19111 (1/2a) after 24 to 48 hrs by broth microdilution assay. It counts as functional.
For assay [29], the system named is Staphylococcus aureus. The assay is described as follows: Antimicrobial activity against methicillin-resistant Staphylococcus aureus clinical isolate after 24 to 48 hrs by broth microdilution assay. It is filed as functional.
The subject of assay [30] is Acinetobacter baumannii. The assay is described as follows: Bactericidal activity against Acinetobacter baumannii clinical isolate preincubated for 24 to 48 hrs followed by replating on MHA plates and measured after 18 hrs by broth microdilution assay. It is filed as functional.
Assay [31] has as its system TERT-RPE1. The assay is described as follows: Cytotoxicity against human RPE1 cells assessed as reduction in cell viability after 48 hrs by MTS assay. The conditions noted are these: RPE-1, 48 h. It counts as cell-based. Background: Tetrazolium dyes change colour on reduction, which living cells bring about.
Assay [32] relates to Salmonella typhimurium. The assay can be described thus: Antimicrobial activity against Salmonella typhimurium WDCM 00031 after 24 to 48 hrs by broth microdilution assay. It counts as functional, Salmonella enterica subsp. enterica serovar Typhimurium. The conditions noted are these: Salmonella enterica.
Assay [33] has as its system Klebsiella pneumoniae. The assay can be described thus: Antimicrobial activity against Klebsiella pneumoniae ATCC 13883 after 24 to 48 hrs by broth microdilution assay. It is filed as functional.

As usually defined, the MBC is the lowest tested concentration that kills the bacteria rather than only halting them. A low value points to greater bactericidal potency. A word on the MIC: it is the lowest concentration that inhibits growth of the organism. Read a high MIC as weaker potency. For orientation: IC50 means the midpoint of a concentration-inhibition curve. As for `CCCCCCCCCCCC[N+](C)(C)Cc1ccccc1.[Br-]`, the figures for the MBC in [1] and in assay [4] were 1.5 µg/mL and 3.9 µg/mL, respectively. Also, the MIC in assay [2] was 1.5 µg/mL; in [3] it was 3.9 µg/mL. Also, the figures for the IC50 in assay [5] and in assay [6] were 1 µg/mL and 3.98 µg/mL, respectively. The result in assay [7] was Active.

As a reminder, the MIC50 is the lowest concentration that inhibits either 50% of growth or 50% of the strains tested, depending on the study. A lower MIC50 goes with higher susceptibility. A word on the MIC90: it is the lowest concentration that inhibits either 90% of growth or 90% of the strains tested, depending on the study. A low value points to higher susceptibility. Turning to `CCCCCCCCCCCC[N+]12CCC(CC1)C(O)C2.[Br-]` (stereo unspecified), the MBC was found to be 125 µg/mL in [8]; 15.6 µg/mL in assay [1]; 250 µg/mL in assay [10]; 15.6 µg/mL in [11]; 250 µg/mL in [12]; 62.5 µg/mL in [13]. The MBC in assay [15] worked out at 0.48 µg/mL; in assay [16], 31.2 µg/mL; in assay [17], 250 µg/mL; in assay [18], 500 µg/mL; in assay [4], 62.5 µg/mL; in assay [23] it was 62.5 µg/mL. Further, in [30], the minimal bactericidal concentration (MBC) worked out at 125 µg/mL. The MIC50 was found to be 7.8 µg/mL in assay [9], 31.2 µg/mL in assay [14] and 1.95 µg/mL in assay [26]. The results for the MIC90 in assay [9], in [14] and in [26] were 15.6 µg/mL, 62.5 µg/mL and 3.9 µg/mL, respectively. For the same compound, the MIC in [2] is 15.6 µg/mL; in assay [19], 125 µg/mL; in assay [3], 62.5 µg/mL; in assay [20], 15.6 µg/mL; in assay [21], 250 µg/mL; in [22], 62.5 µg/mL. Also, the MIC in [24] came to 62.5 µg/mL; in assay [25], 0.48 µg/mL; in assay [27], 250 µg/mL; in assay [28] it was 31.2 µg/mL; in assay [29], 62.5 µg/mL; in assay [32], 250 µg/mL. Further, in assay [33], the MIC was 125 µg/mL. In addition, the figures for the IC50 in assay [5] and in assay [31] were 1 µg/mL and 8 µg/mL, respectively.
